Patent US9056104B2, “Dynamic inhibitors of heat shock protein 90” (THE UNIVERSITY OF KANSAS, priority 2011, dated 2015)
Where two headings read alike, the source gives them in different places.

Key:
Format in all cases: cell-based
[1] = system: MCF-7 (estrogen receptor positive breast cancer cells); assay: Anti-proliferative activity against MCF-7 cells; conditions: mean ± SD
Procedure: (§1) Once synthesized, the library of coumermycin A1 analogs containing the olefinic and saturated linkers, were evaluated for anti-proliferative activity against SKBr3 (estrogen receptor negative, Her2 over-expressing breast cancer cells), MCF-7 (estrogen receptor positive breast cancer cells), A549 (human lung adenocarcinoma epithelial), HT29 (Human colon adenocarcinoma grade II), and PC3mm2 (androgen receptor insensitive prostate cancer) cell lines. […] As shown, X is at the 6 position and Y is at the 8 position.

[2] = system: SKBr3 (estrogen receptor negative, Her2 over-expressing breast cancer cells); assay: Anti-proliferative activity against SKBr3 cells; conditions: for IC50: mean ± SD
Procedure: as §1

[3] = system: HSP90-dependent client proteins (Her-2, Raf, Akt); assay: Western blot analyses of HSP90 client protein degradation in MCF-7 breast cancer cells; conditions: MCF-7 lysates, 24 hour treatment, 5x and 1/2 of antiproliferative IC50; actin control
Procedure: Since actin is not dependent on HSP90 for its maturation, actin levels should remain constant after treatment with an HSP90 inhibitor and is therefore used as a control. […] L represents a concentration ½ of the anti-proliferative IC50 value while H represents a concentration 5 times greater than the anti-proliferative IC50 value. GDA (500 nM) represents a positive control, while DMSO (0), vehicle, serves as the negative control. […]

[4] = system: PC3mm2 (androgen receptor insensitive prostate cancer); assay: Anti-proliferative activity against PC3mm2 cells
Procedure: as §1, with “lines. The activities produced provide insight into the optimal distance between binding sites and provide rationale for subsequent analog design.” for “lines.”

[5] = system: HT29 (Human colon adenocarcinoma grade II); assay: Anti-proliferative activity against HT29 cells
Procedure: as §1, with “lines. The activities produced provide insight into the optimal distance between binding sites and provide rationale for subsequent analog design.” for “lines.”

[6] = system: A549 (human lung adenocarcinoma epithelial); assay: Anti-proliferative activity against A549 cells
Procedure: as §1, with “lines. The activities produced provide insight into the optimal distance between binding sites and provide rationale for subsequent analog design.” for “lines.”

[7] = system: SKBr3, MCF-7, A549, HT29 and PC3mm2 cell lines; assay: Anti-proliferative activity, cell lines not specified; conditions: versus Compounds 65-70
Procedure: as §1, with “lines. The activities produced provide insight into the optimal distance between binding sites and provide rationale for subsequent analog design.” for “lines.”

[8] = Table 2, read-out: Anti-Proliferation Activities of non-Noviosylated Olefin Dimers, MCF7
[9] = Table 2, read-out: Anti-Proliferation Activities of non-Noviosylated Olefin Dimers, SKBr3
[10] = Table 2, read-out: Anti-Proliferation Activities of non-Noviosylated Olefin Dimers, PC3mm2
[11] = Table 2, read-out: Anti-Proliferation Activities of non-Noviosylated Olefin Dimers, HT29
[12] = Table 2, read-out: Anti-Proliferation Activities of non-Noviosylated Olefin Dimers, A549
[13] = Table 1, at least two experiments in triplicate, read-out: Anti-Proliferation Activities of Noviosylated Olefin Dimers, MCF-7
[14] = Table 1, at least two experiments in triplicate, read-out: Anti-Proliferation Activities of Noviosylated Olefin Dimers, SKBr3
[15] = Table 4, read-out: Anti-Proliferation Activities of Biaryl Dimers, MCF-7
[16] = Table 4, read-out: Anti-Proliferation Activities of Biaryl Dimers, SKBr3
[17] = Table 3, read-out: Anti-Proliferation Activities of Saturated Linker Dimers, MCF-7
[18] = Table 3, read-out: Anti-Proliferation Activities of Saturated Linker Dimers, SKBr3
[19] = Table 3, read-out: Anti-Proliferation Activities of Saturated Linker Dimers, PC3mm2
[20] = Table 3, read-out: Anti-Proliferation Activities of Saturated Linker Dimers, HT29
[21] = Table 3, read-out: Anti-Proliferation Activities of Saturated Linker Dimers, A549

Structure (SMILES): Cc1c(OCCCN(C)C)ccc2cc(NC(=O)C/C=C/CC(=O)Nc3cc4ccc(OCCCN(C)C)c(C)c4oc3=O)c(=O)oc12 [Compound 36]
- IC50 [1, 8]: 840 nM
- IC50 [2, 9]: 460 ± 20 nM
- degradation of HSP90 client proteins (Her-2, Raf, Akt), Western blot [3]: no activity against HSP90 client proteins
- IC50 [4, 10]: 15200 nM
- IC50 [5, 11]: 12200 nM
- IC50 [6, 12]: 19400 nM

Structure (SMILES): COc1c(OC2CCN(C)CC2)ccc2cc(NC(=O)C/C=C/CC(=O)Nc3cc4ccc(OC5CCN(C)CC5)c(OC)c4oc3=O)c(=O)oc12 [Compound 28]
- IC50 [1, 8]: 1460 ± 200 nM
- IC50 [2, 9]: 710 ± 40 nM
- IC50 [4, 10]: 8630 nM

Structure (SMILES): COc1cc2cc(NC(=O)C/C=C/CC(=O)Nc3cc4cc(OC)c(OC5CCN(C)CC5)c(C)c4oc3=O)c(=O)oc2c(C)c1OC1CCN(C)CC1 [Compound 27]
- IC50 [1, 8]: 560 ± 50 nM
- IC50 [2, 9]: 270 ± 10 nM
- IC50 [4, 10]: 170 nM
- IC50 [6, 12]: 550 nM

Structure (SMILES): COc1c(OC2CCN(C)CC2)ccc2cc(NC(=O)CC/C=C/CCC(=O)Nc3cc4ccc(OC5CCN(C)CC5)c(OC)c4oc3=O)c(=O)oc12 [Compound 31]
- IC50 [1, 8]: 1120 ± 30 nM
- IC50 [2, 9]: 2220 ± 500 nM
- degradation of HSP90 client proteins (Her-2, Raf, Akt), Western blot [3]: no activity against HSP90 client proteins
- IC50 [4, 10]: 60 nM
- IC50 [6, 12]: 1220 nM

Structure (SMILES): COc1cc2cc(NC(=O)CCC/C=C/CCCC(=O)Nc3cc4cc(OC)c(OC5CCN(C)CC5)c(C)c4oc3=O)c(=O)oc2c(C)c1OC1CCN(C)CC1 [Compound 33]
- IC50 [1, 8]: 310 ± 50 nM
- IC50 [2, 9]: 220 ± 50 nM
- IC50 [4, 10]: 380 nM
- IC50 [6, 12]: 37700 nM

Structure (SMILES): COc1ccc(C(=O)Nc2cc3ccc(OC(C)=O)c(C)c3oc2=O)cc1-c1cc(C(=O)Nc2cc3ccc(OC(C)=O)c(C)c3oc2=O)ccc1OC [Compound 73]
- IC50 ([1]; Table 5, read-out: Anti-Proliferation Activities Non-Noviosylated Biaryl Dimers, MCF-7): > 100000 nM
- IC50 ([2]; Table 5, read-out: Anti-Proliferation Activities Non-Noviosylated Biaryl Dimers, SKBr3): 11800 ± 800 nM
- fold less active than the corresponding noviosylated coumarin-containing analogs (Compounds 65-70) [7]: ~10 fold

Structure (SMILES): COc1cc2cc(NC(=O)CC/C=C/CCC(=O)Nc3cc4cc(OC)c(OC5CCN(C)CC5)c(C)c4oc3=O)c(=O)oc2c(C)c1OC1CCN(C)CC1 [Compound 30]
- IC50 [1, 8]: 1310 ± 100 nM
- IC50 [2, 9]: 1100 ± 130 nM
- IC50 [4, 10]: 4860 nM
- IC50 [6, 12]: 13400 nM

Structure (SMILES): COC1C(O)C(O)C(Oc2ccc3cc(NC(=O)CCC=CCCC(=O)Nc4cc5ccc(OC6OC(C)(C)C(OC)C(O)C6O)c(C)c5oc4=O)c(=O)oc3c2C)OC1(C)C (stereo not drawn) [Compound 21]
- IC50 [1, 13]: 3900 ± 700 nM
- IC50 [2, 14]: 1500 ± 100 nM

Structure (SMILES): COc1ccc(C(=O)Nc2cc3cc(OC)c(OC4OC(C)(C)C(OC)C(O)C4O)c(C)c3oc2=O)cc1-c1cc(C(=O)Nc2cc3cc(OC)c(OC4OC(C)(C)C(OC)C(O)C4O)c(C)c3oc2=O)ccc1OC (stereo not drawn) [Compound 69]
- IC50 [1, 15]: 720 ± 210 nM
- IC50 [2, 16]: 110 ± 50 nM
- fold more active on SkBr3 cell lines than corresponding 8-Me and 8-OMe coumarin analogs (Compounds 66 and 68) ([2]; versus Compounds 66 and 68): 7-8 fold

Structure (SMILES): Cc1c(OC2CCN(C)CC2)ccc2cc(NC(=O)CC/C=C\CCC(=O)Nc3cc4ccc(OC5CCN(C)CC5)c(C)c4oc3=O)c(=O)oc12 [Compound 38]
- IC50 [1, 8]: 49900 ± 2600 nM
- IC50 [2, 9]: > 100000 nM
- IC50 [4, 10]: 32900 nM
- IC50 [6, 12]: 77600 nM

Structure (SMILES): Cc1c(OC2CCN(C)CC2)ccc2cc(NC(=O)C/C=C/CC(=O)Nc3cc4ccc(OC5CCN(C)CC5)c(C)c4oc3=O)c(=O)oc12 [Compound 26]
- IC50 [1, 8]: 290 ± 10 nM
- IC50 [2, 9]: 180 ± 30 nM
- IC50 [4, 10]: 7510 nM
- IC50 [5, 11]: 7100 nM
- IC50 [6, 12]: 8840 nM

Structure (SMILES): COc1c(OC2CCN(C)CC2)ccc2cc(NC(=O)CCC/C=C/CCCC(=O)Nc3cc4ccc(OC5CCN(C)CC5)c(OC)c4oc3=O)c(=O)oc12 [Compound 34]
- IC50 [1, 8]: 880 ± 110 nM
- IC50 [2, 9]: 370 ± 50 nM
- IC50 [4, 10]: 50 nM
- IC50 [6, 12]: 1210 nM

Structure (SMILES): COC1C(O)C(O)C(Oc2ccc3cc(NC(=O)CC=CCC(=O)Nc4cc5ccc(OC6OC(C)(C)C(OC)C(O)C6O)c(C)c5oc4=O)c(=O)oc3c2C)OC1(C)C (stereo not drawn) [Compound 20]
- IC50 [1, 13]: 53100 ± 7100 nM
- IC50 [2, 14]: > 100000 nM

Structure (SMILES): Cc1c(OC2CCN(C)CC2)ccc2cc(NC(=O)CCCC/C=C/CCCCC(=O)Nc3cc4ccc(OC5CCN(C)CC5)c(C)c4oc3=O)c(=O)oc12 [Compound 35]
- IC50 [1, 8]: 730 ± 100 nM
- IC50 [2, 9]: 510 ± 60 nM

Structure (SMILES): COC1C(O)C(O)C(Oc2ccc3cc(NC(=O)c4cccc(-c5cccc(C(=O)Nc6cc7ccc(OC8OC(C)(C)C(OC)C(O)C8O)c(C)c7oc6=O)c5)c4)c(=O)oc3c2C)OC1(C)C (stereo not drawn) [Compound 65]
- IC50 [1, 15]: 1260 ± 170 nM
- IC50 [2, 16]: 860 ± 140 nM

Structure (SMILES): COc1cc(C(=O)Nc2cc3ccc(OC4OC(C)(C)C(OC)C(O)C4O)c(C)c3oc2=O)cc(-c2cc(OC)cc(C(=O)Nc3cc4ccc(OC5OC(C)(C)C(OC)C(O)C5O)c(C)c4oc3=O)c2)c1 (stereo not drawn) [Compound 68]
- IC50 [1, 15]: 1850 ± 520 nM
- IC50 [2, 16]: 1950 ± 400 nM
- IC50 ([4]; Table 4, read-out: Anti-Proliferation Activities of Biaryl Dimers, PC3mm2): 12500 nM
- IC50 ([5]; Table 4, read-out: Anti-Proliferation Activities of Biaryl Dimers, HT29): 11700 nM
- IC50 ([6]; Table 4, read-out: Anti-Proliferation Activities of Biaryl Dimers, A549): 28900 nM

Structure (SMILES): Cc1c(OC2CCN(C)CC2)ccc2cc(NC(=O)CCCCCCC(=O)Nc3cc4ccc(OC5CCN(C)CC5)c(C)c4oc3=O)c(=O)oc12 [Compound 43]
- IC50 [1, 17]: 2820 ± 300 nM
- IC50 [2, 18]: 1190 ± 300 nM
- IC50 [4, 19]: 13800 nM
- IC50 [5, 20]: 26300 nM
- IC50 [6, 21]: 30400 nM

Structure (SMILES): COc1cc2cc(NC(=O)CC=CCC(=O)Nc3cc4cc(OC)c(OC5OC(C)(C)C(OC)C(O)C5O)c(C)c4oc3=O)c(=O)oc2c(C)c1OC1OC(C)(C)C(OC)C(O)C1O (stereo not drawn) [Compound 16]
- IC50 [1, 13]: > 100000 nM
- IC50 [2, 14]: > 100000 nM

Structure (SMILES): COc1cc2cc(NC(=O)CCC=CCCC(=O)Nc3cc4cc(OC)c(OC5OC(C)(C)C(OC)C(O)C5O)c(C)c4oc3=O)c(=O)oc2c(C)c1OC1OC(C)(C)C(OC)C(O)C1O (stereo not drawn) [Compound 18]
- IC50 [1, 13]: 168000 ± 9700 nM
- IC50 [2, 14]: 106000 ± 13200 nM

Structure (SMILES): Cc1c(OC2CCN(C)CC2)ccc2cc(NC(=O)CCCCC(=O)Nc3cc4ccc(OC5CCN(C)CC5)c(C)c4oc3=O)c(=O)oc12 [Compound 42]
- IC50 [1, 17]: 2460 ± 400 nM
- IC50 [2, 18]: 1260 ± 200 nM

Structure (SMILES): COc1c(OC2OC(C)(C)C(OC)C(O)C2O)ccc2cc(NC(=O)CC=CCC(=O)Nc3cc4ccc(OC5OC(C)(C)C(OC)C(O)C5O)c(OC)c4oc3=O)c(=O)oc12 (stereo not drawn) [Compound 17]
- IC50 [1, 13]: > 100000 nM
- IC50 [2, 14]: 52000 ± 7800 nM

Structure (SMILES): Cc1c(OC2CCN(C)CC2)ccc2cc(NC(=O)CCCCCCCCC(=O)Nc3cc4ccc(OC5CCN(C)CC5)c(C)c4oc3=O)c(=O)oc12 [Compound 44]
- IC50 [1, 17]: 3680 ± 400 nM
- IC50 [2, 18]: 2840 ± 100 nM
- IC50 [4, 19]: 10200 nM
- IC50 [5, 20]: 3900 nM
- IC50 [6, 21]: 13200 nM

Structure (SMILES): COc1cc(C(=O)Nc2cc3ccc(OC4OC(C)(C)C(OC)C(O)C4O)c(C)c3oc2=O)cc(-c2cc(C(=O)Nc3cc4ccc(OC5OC(C)(C)C(OC)C(O)C5O)c(C)c4oc3=O)ccc2OC)c1 (stereo not drawn) [Compound 67]
- IC50 [1, 15]: 38000 ± 1500 nM
- IC50 [2, 16]: 28500 ± 4400 nM
